Laboratory results reported in PubChem BioAssay (NCI).
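In this assay, cells in 96-well plates receive the compound at five concentrations for 48 hours. Endpoints are linearly interpolated between the surrounding concentrations. TGI is the concentration that stops growth completely.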

Columns and labels:
Experiment in all cases: DTP human tumour cell line panel, 48 h
[1] = test system: SR leukemia
[2] = test system: HCT-116 colon
[3] = test system: CCRF-CEM leukemia
[4] = test system: DU-145 prostate
[5] = test system: HS 578T breast
[6] = test system: UO-31 renal
[7] = test system: OVCAR-5 ovarian
[8] = test system: UACC-62 melanoma
[9] = test system: OVCAR-4 ovarian
[10] = test system: COLO 205 colon
[11] = test system: SW-620 colon
[12] = test system: MOLT-4 leukemia
[13] = test system: OVCAR-3 ovarian
[14] = test system: RXF 393 renal
[15] = test system: RPMI-8226 leukemia
[16] = test system: HT29 colon

Row | SMILES | TGI [1] | TGI [2] | TGI [3] | TGI [4] | TGI [5] | TGI [6] | TGI [7] | TGI [8] | TGI [9] | TGI [10] | TGI [11] | TGI [12] | TGI [13] | TGI [14] | TGI [15] | TGI [16]
1 | COc1cc2c(SCCN(C)C)nc3ccccc3c2c2ccccc12 | 4.42 µM | 2.83 µM | 4.56 µM | 15.8 µM | 8.61 µM | 8.09 µM | 4.03 µM | 3.12 µM | 9.22 µM | 3.75 µM | 3.64 µM | 8.14 µM | 7.79 µM | 4.29 µM | 4.23 µM | > 100 µM
2 | COc1ccc(NC(=O)CSc2nc(C)nc3c2sc(=S)n3-c2ccccc2)cc1 | > 10 µM | > 10 µM | > 10 µM | > 10 µM | > 10 µM | – | > 10 µM | > 10 µM | 9.29 µM | > 10 µM | > 10 µM | > 10 µM | > 10 µM | > 10 µM | > 10 µM | > 10 µM
3 | C=C1C(=O)O[C@H]2C(=O)[C@H](C)CCC/C(C)=C/CC[C@@]3(C)O[C@@H]3C[C@@H]12 | 10.5 µM | 2.26 µM | 4.18 µM | 11.1 µM | 28.4 µM | 3.18 µM | 18.9 µM | 16.8 µM | – | 3.54 µM | 3.54 µM | 4.72 µM | 3.52 µM | – | 4.79 µM | 10.6 µM
4 | CC1CCC2C(C)C(OC(=O)CCC(=O)O)OC3OC4(C)CCC1C32OO4 (configuration not stated) | 3.37 µM | 16.3 µM | 36 µM | 63.4 µM | > 100 µM | 3.88 µM | 57.8 µM | > 100 µM | 27.7 µM | 6.71 µM | > 100 µM | 15 µM | > 100 µM | – | 24.1 µM | > 100 µM
5 | CC1=C(C)C2(C#N)C(=O)N3C(=NC(c4ccco4)NC3c3ccco3)C2(C#N)C(c2ccco2)N1 (configuration not stated) | > 100 µM | > 100 µM | > 100 µM | > 100 µM | > 100 µM | > 100 µM | > 100 µM | > 100 µM | > 100 µM | > 100 µM | > 100 µM | > 100 µM | – | > 100 µM | > 100 µM | > 100 µM
6 | CCN(CC)CCC(=O)c1ccc(Cl)c(Cl)c1 | 64.2 µM | 68.3 µM | 50.5 µM | > 100 µM | 45.9 µM | > 100 µM | > 100 µM | 31 µM | > 100 µM | 91.4 µM | 41.3 µM | 82.8 µM | – | 25.3 µM | > 100 µM | > 100 µM
7 | COC1(OC)CCCCCCCCC(OC)(OC)CCCCCCCC1 | > 100 µM | > 100 µM | – | > 100 µM | > 100 µM | 10.9 µM | > 100 µM | > 100 µM | – | > 100 µM | > 100 µM | – | > 100 µM | > 100 µM | – | > 100 µM
